Experimental data published in patent publication US6022696A, “Methods of identifying agonists or antagonists of angiotensin IV” (Washington State University Research Foundation, priority 1998, dated 2000).

Experiment: Stability of angiotensin peptides in binding assay buffer / assay conditions
Assay type: physicochemical
Details: 4 h at 37° C., reverse phase HPLC

SMILES: CC[C@H](C)[C@H](NC(=O)[C@H](Cc1ccc(O)cc1)NC(=O)[C@@H](N)C(C)C)C(=O)N[C@@H](Cc1cnc[nH]1)C(=O)N1CCC[C@H]1C(=O)N[C@@H](Cc1ccccc1)C(=O)O [AIV, Val1 Tyr2 Ile3 His4 Pro5 Phe6]
- hydrolysis in binding buffer: less than 10%
